Measured values taken from patent US8053573B2, “Monomer 5, 6-diphenyl-1.2.4-traizinic derivatives and the use thereof” (Pierre Fabre Dermo-Cosmetique, priority 2004, dated 2011).
Where “and” joins values, the source holds several entries; their conditions need not be identical. Identical values can stand only once.

Legend:
Format in all cases: physicochemical
[1] = In vitro SPF in a chemical solvent (Diffey and Robson); details: ethyl acetate solution, 10 μg/ml, transmittance 290-400 nm
Description: The in vitro methods of determining the protective effectiveness of sun products consist of measuring by transmission spectrophotometry the absorption spectrum of the filter in solution or of the product applied on a substrate with the aim of simulating the surface of the skin. The effectiveness against UVB and/or UVA rays, or the effect on the cutaneous response, are then determined by calculation, taking into account or not the UV radiation action spectrum for the damage considered.
The Sayre/Agin and Diffey/Robson method, used since the 1990s, involves a comparative measurement, with the aid of an integrating-sphere spectroradiometer, of the transition from 290 nm to 400 nm in 5 nm steps, the sample being subjected to UV radiation from a stable known source covering the whole of the UV spectrum (unfiltered xenon).
Diffey and Robson evaluate the erythemal response by the following calculation:
[formula] E(λ)=spectral irradiation in W(m^−2) (nm^−1) at 40° N sun at 20° zenith angle ε=erythematous capacity
The Diffey and Robson formula makes it possible to determine SPF from the measurement of transmittance between 290 nm and 400 nm. Transmittance is measured in solution in ethyl acetate at a concentration of 10 μg/ml using a UV-visible spectrophotometer (Varian CARY 50 Scan).

[2] = In vitro SPF in a primary formula (gel on PMMA plates); details: PMMA plate, 1.2 mg/cm^2
Description: PMMA (polymethyl methacrylate) plates (50×50 mm, supplied by Europlast) were used.
The dose applied in the in vivo solar product evaluation protocols (2 mg/cm^2) is too high for the type of substrate employed here.
Gels were formulated from the triazines that are objects of this invention and certain reference filters. The molecules are solubilized in Transcutol® CG in a water bath. The solution is then placed under magnetic stirring and a gelling agent, Klucel HF (hydroxypropyl cellulose), is added at a concentration of 2%. Stirring is maintained for 30 minutes. SPF is measured using a Labsphere UV-1000 S Transmittance Analyzer spectrophotometer (Labsphere, North Sutton, N.H., USA).

[3] = Spectral characteristics: molar extinction coefficient and specific absorbance; details: ethyl acetate, 10 μg/ml; for Maximum specific absorbance UVB / Maximum specific absorbance UVA: A1cm^1%
Text: The calculation of the molar extinction coefficient (ε) is made from the Beer-Lambert law:
[formula] Wherein: A=absorbance I0=intensity of the incident light I=intensity of the transmitted light ε=molar extinction (or molar absorbance) coefficient in M^−1 cm^−1 l=path length in cm c=concentration in mol/l
The molar extinction coefficient can be expressed with respect to a given mass of the product. It thus makes it possible to be able to compare the coefficients of extinction between products for the same given quantity. This quantity is 1% by weight. The molar extinction coefficient thus becomes the specific absorbance (A1cm^1%).
[formula] Wherein: A1cm^1%=specific absorbance ε=molar extinction coefficient M=molar mass
The spectral characteristics of the compounds in comparison with commercial filters at a concentration of 10 μg/ml are summarized in tables 2-1 and 2-2.
Procedure: The products are dissolved in ethyl acetate to a concentration of 10 μg/ml. The spectra are measured using a dual-beam spectrophotometer (Varian CARY 50 Scan) between 290 nm and 400 nm.

[4] = Spectral distribution in UVA and UVB (290-400 nm); details: range from 290 nm to 400 nm
Text: The products tested are classified according to spectral distribution in UVA and UVB in a range from 290 nm to 400 nm.
It is possible to differentiate them according to their spectral distribution:
Products with a narrow spectrum: • Products absorbing in the range between 280 nm and 320 nm (UVB) • Products absorbing in the range between 320 nm and 400 nm (UVA) Products with a broad spectrum: • Products absorbing in UVB (280-320 nm) and UVA-II […] • Products covering UVB and UVA (280-400 nm).

[5] = Photostability in solution in a chemical solvent (Suntest CPS+); details: 25 μg deposited from methanol, absorbance vs non-irradiated control, in % (unit assumed); for Photostability at 10 MED mean: Suntest irradiation 10 MED; for Photostability at 20 MED mean: Suntest irradiation 20 MED
Text: A Suntest CPS+ (Atlas, Linsengenicht/Altenhasslan, Germany) was used. The Suntest makes it possible to reproduce the solar spectrum and thus to carry out exposures inside at any time without weather constraints.
The radiance of the solar simulator was carefully measured with a spectroradiometer (MSS 2044, Bielefeld, Germany). UVB and UVA intensities were 0.49 mW/cm^2 and 6.32 mW/cm^2, respectively. The MED value defined by COLIPA is 5.6 J/cm^2 in total UV (22). The UV total (UVA+UVB) accounts for 14.8% of the energy delivered by the lamp (power 460 W/m^2). An irradiation dose equivalent to 1 MED corresponds to 37.83 J/cm^2 (in total spectrum) delivered by the lamp.
The Suntest test duration is calculated using the following formula: t=H/E with: […]
The solutions of the compounds are prepared at a concentration of 500 μg/ml in methanol. 50 μl (25 μg) of each solution are deposited in a crystallizer, then irradiated in the Suntest at 5, 10 and/or 20 MED. A non-irradiated control is prepared (deposit of 50 μl of solution and addition of 2.450 ml of methanol). The solvent evaporates during irradiation and the products are taken up in 2.5 ml of methanol. After irradiation, the absorbance of each solution is measured with the UV-visible spectrophotometer (Varian CARY 50 Scan).

[6] = Solubility study in solvents or excipients used in cosmetics
[7] = Spectral characteristics: molar extinction coefficient and specific absorbance; details: ethyl acetate, 10 μg/ml
[8] = single filter 3% in Transcutol CG / Klucel HF gel
[9] = Finsol V NT ® (C12-C15 alkyl benzoate)

Maximum specific absorbance UVB [3] | Maximum molar extinction coefficient UVB [3] | Wavelength of maximum molar extinction coefficient UVB [3] | Wavelength of maximum specific absorbance UVB [3] | Spectral distribution [4] | Photostability at 10 MED mean [5] | Photostability at 20 MED mean [5] | Solubility (%) [6, 9] | Solubility (%) ([6]; PEG400 ® (polyethylene glycol)) | Maximum specific absorbance UVA [3] | Maximum molar extinction coefficient UVA [3] | Wavelength of maximum molar extinction coefficient UVA [3] | Wavelength of maximum specific absorbance UVA [3] | SMILES | SPF [1] | SPF [2, 8] | further results
809 | 31100 M⁻¹ cm⁻¹ | at 315 | at 315 | absorb in UVB | 96.91 | 85.5 | 1% | 5% | – | – | – | – | COc1ccc(-c2nnc(-c3ccc(O)cc3)nc2-c2ccc(OC)cc2)cc1 [JR65, 3-(4-hydroxyphenyl)-5,6-bis(4-methoxyphenyl)-1,2,4-triazine] | 68.21 | 9.8 and 10.9 | Solubility (%) ([6]; Arlasolve DMI ® (dimethyl isosorbide)): 8%; Solubility (%) ([6]; Butylene glycol): 5%; Solubility (%) ([6]; Cetiol SN ® (decyl oleate)): 1%; Solubility (%) ([6]; Cetiol V ® (cetearyl isononanoate)): 2%; Solubility (%) ([6]; Hexylene glycol): 5%; Solubility (%) ([6]; Isopropyl adipate): 2%; Solubility (%) ([6]; Isopropyl myristate): 5%; Solubility (%) ([6]; Myritol 318 ® (caprylic/capric triglycerides)): 0.5%
878 at | 48600 M⁻¹ cm⁻¹ | at 305 | 305 | absorb in UVB | – | – | 7% | 2% | – | – | – | – | CCCCCCCCCCCCOc1ccc(-c2nnc(-c3ccc(OC)cc3)c(-c3ccc(OC)cc3)n2)cc1 [JR173, 3-(4-dodecyloxyphenyl)-5,6-bis(4-methoxyphenyl)-1,2,4-triazine] | 69.02 | – | –

Second part, the compound before the results:

SMILES | Maximum specific absorbance UVB [3] | Maximum molar extinction coefficient UVB [3] | Wavelength of maximum molar extinction coefficient UVB [3] | Wavelength of maximum specific absorbance UVB [3] | Spectral distribution [4] | Photostability at 10 MED mean [5] | Photostability at 20 MED mean [5] | Solubility (%) [6, 9] | Solubility (%) ([6]; PEG400 ® (polyethylene glycol)) | Maximum specific absorbance UVA [3] | Maximum molar extinction coefficient UVA [3] | Wavelength of maximum molar extinction coefficient UVA [3] | Wavelength of maximum specific absorbance UVA [3] | SPF [1] | SPF [2, 8] | further results
COc1ccc(C(=O)CC(=O)c2ccc(C(C)(C)C)cc2)cc1 [Parsol 1789 ®, reference compound] | – | – | – | – | only absorbs in UVA | 57.04 | 6.26 | – | – | 1100 | 34100 M⁻¹ cm⁻¹ | at 360 | at 360 | 51.1 | – | Maximum specific absorbance UVC ([7]; A1cm^1%): 278 at; Maximum molar extinction coefficient UVC [7]: 8633 at M^−1 cm^−1; Wavelength of maximum molar extinction coefficient UVC [7]: 275; Wavelength of maximum specific absorbance UVC [7]: 275
CCCCC(CC)COC(=O)C=Cc1ccc(OC)cc1 (stereo not shown) [Parsol MCX ®, reference compound] | 848 | 24600 M⁻¹ cm⁻¹ | at 310 | at 310 | – | 33.38 | 11.63 | – | – | – | – | – | – | 20.78 | – | SPF ([2]; single filter 5% in Transcutol CG / Klucel HF gel): 17.2
CCCCC(CC)COc1ccc(-c2nc(-c3ccc(OC)cc3)nc(-c3ccc(OCC(CC)CCCC)cc3O)n2)c(O)c1 (stereo not shown) [Tinosorb S ®, reference compound] | 751 | 47150 M⁻¹ cm⁻¹ | at 310 | at 310 | absorb in UVB and UVA | – | – | – | – | 789 | 49580 M⁻¹ cm⁻¹ | at 345 | at 345 | 76.19 | 9.8 | –
